Laboratory results published in patent US20220178936A1, “A SENSITIVE LC-MS ASSAY TO MEASURE CURCUMINOIDS IN COMPLEX BIOLOGICAL SAMPLES” (THE REGENTS OF THE UNIVERSITY OF CALIFORNIA, priority 2019, published 2022).
Like-named read-outs stand apart in the source and are kept apart here. One block for each compound: values may come before it.

Legend:
[1] = Curcuminoids in murine tumor, brain and liver after PHRAD 129; conditions: for signal in murine tumor extract: oral PHRAD 129, 100 mg/kg daily
Description: Murine soft tissues. Mouse liver, brain, and tumor samples were collected from animals that had been administered a proprietary turmeric formulation (PHRAD 129, Aveta Biomics, Bedford, Mass.). After dissection, the tissues were weighed, frozen and stored at −80° C.
The samples were homogenized in a bead mill (thrice for 10 seconds each time at RT). The homogenate was vigorously mixed (5 min, RT), centrifuged (16,000 g, 5 min at RT), and the supernatant was transferred to microcentrifuge tubes and dried in a vacuum centrifuge. The dried samples were tightly capped and stored at −80° C.

[2] = in vivo
Description: (§1) Biological samples: Human plasma. […] The tubes were centrifuged (1000 g, 15 min), and plasma was collected and stored at −80° C.
(§2) Extraction of human plasma samples and BF2 complex formation: Plasma samples were prepared in duplicate by transferring aliquots of human plasma (100 uL) to 1.5 mL microcentrifuge tubes. The internal standards (1 pmol d6C and 5 pmol d6TC in 10 uL of methanol) were added to each sample. They were briefly vortexed, then treated with cold 10 mM acetic acid in methanol (1 mL). After rigorous mixing, incubation (4° C., 60 min) and centrifugation (16,000 g, Rt, 5 min) supernatants were transferred to clean microcentrifuge tubes and dried in a vacuum centrifuge. The dried samples were tightly capped and stored in −80° C.
(§3) Analysis of the blood collected at 0, 1, 2, 3, 4, and 5 hours after compound ingestion on Day 1 and 0, 1, 2, 3, and 4 hours on Day 17 was performed.

[3] = BF2-curcuminoid complex stability (hydrolysis, autosampler); assay type: physicochemical
Description: Complex stability: The BF2-curcumin complexes slowly hydrolyze in water and water/methanol mixtures with a half-life of a few hours at 4° C. For applicability to an LC/MS assay on biological samples containing amounts of curcuminoids as low as 50 fmol/sample, and using an aqueous chromatographic mobile phase, it was necessary to use conditions that minimized hydrolysis. This breakdown was slowed but not averted by storing the samples at even lower temperatures (−80° C.) prior to analysis. The breakdown of the derivatives was averted by performing the reaction in glacial acetic acid and directly injecting the reaction mixture onto the LC column. Even after the injection of hundreds of samples there has been no noticeable deterioration of chromatographic reliability. Furthermore, by using a short 10 minute chromatographic gradient the hydrolysis of the complexes during chromatography was minimized. The stability of BF2-curcuminoid complex was tested to validate the assay for overnight analysis. Eight QC-mid samples were prepared, stored tightly capped to minimize contact with atmospheric moisture in the autosampler at 20° C., and each sample was analyzed every hour for up to seven hours. Except for BF2-TC, the curcuminoid complexes were stable throughout the 7 hour test period with no significant decline in peak intensity (FIG. 4).

[4] = In vivo temporal profile of plasma curcuminoids and metabolites in a human volunteer; conditions: Longvida four tablets daily for 17 consecutive days
Description: as §1, §2, §3

Compound: O=C(C=Cc1ccc(O)cc1)CC(=O)C=Cc1ccc(O[C@@H]2O[C@H](C(=O)O)[C@@H](O)[C@H](O)[C@H]2O)cc1 [BDMCG, bisdemethoxycurcumin glucuronide]
signal in mouse brain extract ([1]; mouse, in vivo): not detected
signal in mouse liver extract ([1]; mouse, in vivo): not detected
signal in human plasma extract [2]: intense peaks

Compound: Demethoxycurcumin
signal in mouse brain extract ([1]; after PHRAD 129): measurable peaks
signal in mouse liver extract ([1]; after PHRAD 129): measurable peaks
signal in murine tumor extract [1]: strong signals

Compound: demethoxycurcumin glucuronide [DMCG]
signal in mouse brain extract ([1]; after PHRAD 129): not detected
signal in mouse liver extract ([1]; after PHRAD 129): not detected
signal in murine tumor extract [1]: not detected
signal in human plasma extract [4]: intense peaks

Compound: tetrahydrocurcumin
signal in murine tumor extract [1]: strong signals

Results, then the compound that gave them:

hydrolysis half-life ([3]; water and water/methanol mixtures, 4° C.): a few hours
Compound: COc1cc(C=CC2=CC(C=Cc3ccc(O)c(OC)c3)=[O+][B-](F)(F)O2)ccc1O [BF2-C]

stability in autosampler (peak intensity) ([3]; glacial acetic acid reaction mixture, 20° C., 7 hour test period, QC-mid): slight loss of signal intensity
Compound: COc1cc(CCC2=CC(CCc3ccc(O)c(OC)c3)=[O+][B-](F)(F)O2)ccc1O [BF2-TC]

signal in mouse brain extract ([1]; mouse, in vivo): measurable peaks
Compound: COc1cc(/C=C/C(=O)CC(=O)/C=C/c2ccc(O)c(OC)c2)ccc1O [Curcumin, curcumin]

signal in mouse liver extract ([1]; after PHRAD 129): measurable peaks
signal in murine tumor extract [1]: strong signals
Compound: bisdemethoxycurcumin
